Experimental data taken from the supplement of paper PMC11003180.

Legend:
Experiment in all cases: drug sensitivity score (DSS) from 5-dose viability curve (DSS (area-based score, 0 = no response)); higher = more sensitive (stronger viability inhibition); extreme values may be limits of the assay
[1] = system: MDCK wild-type - doxycycline; settings: doxycycline: none; 72 h
Procedure, shortened: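 An oncology library of 528 drugs was pre-spotted at five doses (1-10,000 nM) in 384-well plates, and parental MDCK cells without doxycycline were added at 2000 cells/well. The plates were kept at 37 °C for 72 h. Drug sensitivity scores were obtained by fitting dose-response curves in the Breeze pipeline to CellTiter-Glo viability readings scaled per plate between vehicle and positive controls.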

[2] = system: MDCK p60AmotL2-inducible + doxycycline (p60AmotL2 expressing); settings: doxycycline: 10 ng/mL; 72 h
Procedure, shortened: (§1)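 Two MDCK lines, parental and doxycycline-inducible, received doxycycline at 10 ng/mL in the medium before being plated at 2000 cells/well onto a pre-spotted 384-well oncology library of 528 drugs at five doses (1-10,000 nM). Incubation lasted 72 h at 37 °C. Viability was read by CellTiter-Glo luminescence, scaled per plate between vehicle and positive controls, and converted to drug sensitivity scores through Breeze curve fitting.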

[3] = system: MDCK wild-type + doxycycline; settings: doxycycline: 10 ng/mL; 72 h
Procedure, shortened: as §1

Row | SMILES | drug sensitivity score [1] | drug sensitivity score [2] | drug sensitivity score [3]
1 | Cc1cc(Nc2ncnc3ccc(NC4=NC(C)(C)CO4)cc23)ccc1Oc1ccn2ncnc2c1 [Tucatinib] | 0 | 0 | 0
2 | Cn1cncc1[C@@](N)(c1ccc(Cl)cc1)c1ccc2c(c1)c(-c1cccc(Cl)c1)cc(=O)n2C [Tipifarnib] | 2.5 | 9.6 | 4.4
3 | C=CC(=O)Nc1cc(Nc2nccc(-c3cn(C)c4ccccc34)n2)c(OC)cc1N(C)CCN(C)C [Osimertinib] | 4.6 | 10.9 | 6.4
4 | Oc1ncnc2[nH]ncc12 [Allopurinol] | 0 | 0 | 0
5 | COc1cc(OC2CCN(C)CC2)ccc1Nc1ncc2c(n1)n(C1CCCC1)c(=O)n2C [AZ 3146] | 5.1 | 6.3 | 5.1
6 | COc1cc(Br)c(Nc2nc(-c3c(C)nc4ncccn34)cs2)c(Br)c1 [PTC-209] | 9.6 | 13.8 | 11.4
7 | CN(C)Cc1c(C(=O)NCCOc2ccc(C(=O)NO)cc2)oc2ccccc12 [Abexinostat] | 15.6 | 18.8 | 17.5
8 | O=c1[nH]c(=O)n([C@H]2C[C@H](O)[C@@H](CO)O2)cc1C(F)(F)F [Trifluridine] | 1.4 | 2.6 | 1.4
9 | CCN(CC)CCCC(C)Nc1c2ccc(Cl)cc2nc2ccc(OC)cc12 (configuration not stated) [Mepacrine] | 10.5 | 15.2 | 16.2
10 | COC(=O)c1ccc([C@H]2c3[nH]c4ccccc4c3C[C@H](C(=O)OC)N2C(=O)CCl)cc1 [RSL3] | 0 | 0 | 0
11 | COC(=O)N[C@@H](C)CNc1nccc(-c2cn(C(C)C)nc2-c2cc(Cl)cc(NS(C)(=O)=O)c2F)n1 [Encorafenib] | 0.2 | 0 | 0
12 | CCC1(c2ccc(N)cc2)CCC(=O)NC1=O (configuration not stated) [Aminoglutethimide] | 0 | 0 | 0
13 | c1cn2cc(-c3ccc4cn[nH]c4c3)nc(Nc3ccc(N4CCOCC4)cc3)c2n1 [Entospletinib] | 0 | 0 | 0
14 | N#CC[C@H](C1CCCC1)n1cc(-c2ncnc3[nH]ccc23)cn1 [Ruxolitinib] | 0 | 0 | 0
15 | Cc1noc2c1-c1ccccc1C(c1ccc(Cl)cc1)=N[C@H]2CC(N)=O [CPI-0610] | 3.1 | 10.9 | 4.8
16 | CCS(=O)(=O)Nc1ccc(Oc2ccc(F)cc2F)c(-c2cn(C)c(=O)c3[nH]ccc23)c1 [Mivebresib] | 18.7 | 29.9 | 23.8
17 | CCN(CC)Cc1ccc2cc(COC(=O)Nc3ccc(C(=O)NO)cc3)ccc2c1 [Givinostat] | 4.8 | 7.1 | 4.5
18 | Cc1c(-c2c(-c3ccc(F)o3)sc3ncnc(O[C@H](Cc4ccccc4OCc4ccnn4CC(F)(F)F)C(=O)O)c23)ccc(OCCN2CCN(C)CC2)c1Cl | 0 | 0 | 0
19 | CCN(c1cc(-c2ccc(CN3CCOCC3)cc2)cc(C(=O)NCc2c(C)cc(C)[nH]c2=O)c1C)C1CCOCC1 [Tazemetostat] | 0 | 2.1 | 0
20 | CCCS(=O)(=O)Nc1ccc(F)c(C(=O)c2c[nH]c3ncc(-c4ccc(Cl)cc4)cc23)c1F [Vemurafenib] | 0 | 0 | 0
21 | CC(=O)c1cnc2ccc(-c3cc(Cl)c(O)c(Cl)c3)nc2c1N[C@H]1CC[C@H](CN(C)C)CC1 [OTS167] | 17.2 | 18.8 | 19.4
22 | Cc1cnc(NC(=O)Nc2cc(Br)c(C)cc2OC[C@@H]2CNCCO2)cn1 [Rabusertib] | 0 | 0 | 0

Row | SMILES | drug sensitivity score [1] | drug sensitivity score [2] | drug sensitivity score [3]
23 | Cc1c2oc3c(C)ccc(C(=O)N[C@@H]4C(=O)N[C@H](C(C)C)C(=O)N5CCC[C@H]5C(=O)N(C)CC(=O)N(C)[C@@H](C(C)C)C(=O)O[C@@H]4C)c3nc-2c(C(=O)N[C@@H]2C(=O)N[C@H](C(C)C)C(=O)N3CCC[C@H]3C(=O)N(C)CC(=O)N(C)[C@@H](C(C)C)C(=O)O[C@@H]2C)c(N)c1=O [Dactinomycin] | 25.2 | 32.9 | 27.6
24 | CN(C)C1CCN(C(=O)c2ccc(NC(=O)Nc3ccc(-c4nc(N5CCOCC5)nc(N5CCOCC5)n4)cc3)cc2)CC1 [Gedatolisib] | 0 | 5.2 | 1.9
25 | COCCNCc1ccc(-c2cc3nccc(Oc4ccc(NC(=O)C5(C(=O)Nc6ccc(F)cc6)CC5)cc4F)c3s2)nc1 [Sitravatinib] | 0 | 1.7 | 1.2
26 | Cc1[nH]nc(C(F)(F)F)c1Cc1sc2c(c1C(=O)N1C[C@](C)(O)CO1)c(=O)n(C)c(=O)n2C(C)C [AZD3965] | 0 | 4.5 | 0
27 | CC(=O)c1c(C)c2cnc(Nc3ccc(N4CCNCC4)cn3)nc2n(C2CCCC2)c1=O [Palbociclib] | 0.9 | 4.3 | 0.9
28 | Cn1ncc(Cl)c1-c1cc(C(=O)N[C@H](CN)Cc2ccc(F)c(F)c2)oc1Cl [Uprosertib] | 0 | 0 | 0
29 | COc1ccccc1S(=O)(=O)Nc1ccc2c(c1)CN(C)C(=O)N2 [PFI-1] | 0.3 | 5.3 | 2.4
30 | C=CCN(/C=C1/C(=O)O[C@H](COC)[C@@]2(C)C1=C(O)C(=O)C1=C2[C@H](OC(C)=O)C[C@]2(C)C(=O)CC[C@@H]12)CC=C [Sonolisib] | 0 | 0 | 0
31 | Cc1cc(Nc2cc(N3CCN(C)CC3)nc(Sc3ccc(NC(=O)C4CC4)cc3)n2)n[nH]1 [Tozasertib] | 1.4 | 8.6 | 4.2
32 | O=C(Nc1cccc(NC(=O)c2cccc(O)c2O)c1)c1cccc(O)c1O [MST-312] | 7.2 | 9.1 | 5.9
33 | CNC(=O)c1ccccc1Nc1cc(Nc2ccc(N3CCOCC3)cc2OC)ncc1C(F)(F)F [VS-4718] | 3.6 | 5.6 | 4.7
34 | CCc1cnn2c(NCc3ccc[n+]([O-])c3)cc(N3CCCC[C@H]3CCO)nc12 [Dinaciclib] | 18.3 | 16.3 | 17
35 | CN1CCC(COc2cnc(-c3cccc(Cn4nc(-c5cccc(C#N)c5)ccc4=O)c3)nc2)CC1 [Tepotinib] | 0 | 0.1 | 0
36 | Nc1ncnc2c1nc(Cl)n2[C@@H]1O[C@H](CO)[C@@H](O)[C@H]1O [8-chloro-adenosine] | 6.7 | 13.6 | 8.3
37 | CNS(=O)(=O)Nc1nccc(Cc2c(C)c3ccc(Oc4ncccn4)cc3oc2=O)c1F | 0 | 2.3 | 0.5
38 | CN(CC(=O)N(Cc1ccc(C2CCCCC2)cc1)c1ccc(C(=O)O)cc1)S(=O)(=O)c1c(F)c(F)c(F)c(F)c1F [SH-4-54] | 5.1 | 3.7 | 3.9
39 | CC[C@@H]1C(=O)N(C)c2cnc(Nc3ccc(C(=O)NC4CCN(C)CC4)cc3OC)nc2N1C1CCCC1 [BI 2536] | 19.9 | 15.9 | 15.6
40 | Clc1ccccc1C(c1ccccc1)(c1ccccc1)n1cccn1 [TRAM-34] | 0 | 0 | 0
41 | CN1CCN(c2nc(C3=C(c4c[nH]c5ccccc45)C(=O)NC3=O)c3ccccc3n2)CC1 [Sotrastaurin] | 0 | 0.3 | 0
42 | CO[C@H]1CC[C@H](N2C(=O)CNc3ncc(-c4ccc(C(C)(C)O)nc4)nc32)CC1 [CC-223] | 2.8 | 5.2 | 2.9
43 | C[C@]12CC[C@@H]3c4ccc(O)cc4C[C@@H](CCCCCCCCC[S+]([O-])CCCC(F)(F)C(F)(F)F)[C@H]3[C@@H]1CC[C@@H]2O (some centres not stated) [Fulvestrant] | 0 | 0 | 0
44 | COc1ccc(-c2ccc3c(N4CCOC[C@@H]4C)nc(N4CCOC[C@@H]4C)nc3n2)cc1CO [AZD8055] | 14.9 | 22.5 | 17.8
